The test has as its target T1, human GlyT1c transporter (Homo sapiens, UniProt P48067).
T1 construct: expressed in transfected cells; host or cells: recombinant CHO cells (membranes); the line hGlyT1c_5_CHO is named only for the uptake assay
T1 sequence (P48067 1-706): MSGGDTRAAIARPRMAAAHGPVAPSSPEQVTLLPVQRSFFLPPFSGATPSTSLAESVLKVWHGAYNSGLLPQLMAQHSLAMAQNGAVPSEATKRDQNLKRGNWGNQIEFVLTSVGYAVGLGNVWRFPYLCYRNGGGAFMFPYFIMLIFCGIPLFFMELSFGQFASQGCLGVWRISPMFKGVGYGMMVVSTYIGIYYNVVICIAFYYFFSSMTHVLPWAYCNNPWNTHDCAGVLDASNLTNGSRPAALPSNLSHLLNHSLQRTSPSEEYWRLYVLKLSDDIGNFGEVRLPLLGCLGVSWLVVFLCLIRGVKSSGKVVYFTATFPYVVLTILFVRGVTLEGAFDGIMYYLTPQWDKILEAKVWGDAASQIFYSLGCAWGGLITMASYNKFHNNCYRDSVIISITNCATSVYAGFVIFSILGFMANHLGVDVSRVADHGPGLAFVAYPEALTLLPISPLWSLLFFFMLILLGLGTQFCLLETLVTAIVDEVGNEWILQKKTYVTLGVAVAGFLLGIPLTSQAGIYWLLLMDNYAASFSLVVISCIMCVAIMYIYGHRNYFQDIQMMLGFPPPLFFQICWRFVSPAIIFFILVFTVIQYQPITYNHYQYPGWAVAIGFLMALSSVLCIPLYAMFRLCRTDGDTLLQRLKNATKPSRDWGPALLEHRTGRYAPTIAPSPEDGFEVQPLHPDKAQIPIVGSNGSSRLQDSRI
The test is described as follows: Radioligand binding assay using recombinant CHO cell membranes expressing human GlyT1. As to conditions: apparent Ki, read-out: Kiapp (Inhibition of GlyT1 radioligand binding). As for the experimental part:
2. Radioligand Binding Assays Using Recombinant CHO Cell Membranes Expressing Human GlyT1:
Radioligand binding to human GlyT1c transporter-expressing membranes was carried out as described in Mezler et al., Molecular Pharmacology 74:1705-1715, 2008.

For `Cn1cnc(S(=O)(=O)N2CC(c3ccccc3)C(c3ccc(Cl)cc3)=N2)c1` (single isomer, unassigned) [Example 16a, 3-(4-chlorophenyl)-1-[(1-methyl-1H-imidazol-4-yl)sulfonyl]-4-phenyl-4,5-dihydro-1H-pyrazole], the Ki is at most 0.01 µM.
For `Cn1cnc(S(=O)(=O)N2CC(c3ccccc3)C(c3ccc(Cl)cc3)=N2)c1` (single isomer, unassigned) [Example 16b, 3-(4-chlorophenyl)-1-[(1-methyl-1H-imidazol-4-yl)sulfonyl]-4-phenyl-4,5-dihydro-1H-pyrazole], the Ki is at most 10 µM.
To `Cn1cc(S(=O)(=O)N2CC(c3ccc(F)cc3)C(c3cccc(C(F)(F)F)c3)=N2)nn1` (stereo not shown) [Example 1, 4-({4-(4-fluorophenyl)-3-[3-(trifluoromethyl)phenyl]-4,5-dihydro-1H-pyrazol-1-yl}sulfonyl)-1-methyl-1H-1,2,3-triazole] belongs at most 10 µM; to `Cn1cnc(S(=O)(=O)N2CC(c3ccccc3)C(c3ccc(Cl)cc3)=N2)c1` (stereo not shown) [Example 2, 3-(4-chlorophenyl)-1-[(1-methyl-1H-imidazol-4-yl)sulfonyl]-4-phenyl-4,5-dihydro-1H-pyrazole], at most 0.1 µM.
Take `Cn1cc(S(=O)(=O)N2CC(c3ccc(F)cc3)C(c3ccccc3)=N2)nn1` (stereo not shown) [Example 3, 4-{[4-(4-fluorophenyl)-3-phenyl-4,5-dihydro-1H-pyrazol-1-yl]sulfonyl}-1-methyl-1H-1,2,3-triazole]: the Ki was at most 0.1 µM.
The figure for `Cn1cnc(S(=O)(=O)N2CC(c3ccc(F)cc3)C(c3ccccc3)=N2)c1` (stereo not shown) [Example 4, 4-(4-fluorophenyl)-1-[(1-methyl-1H-imidazol-4-yl)sulfonyl]-3-phenyl-4,5-dihydro-1H-pyrazole] is at most 1 µM; for `Cn1cnc(S(=O)(=O)N2CC(c3ccc(F)cc3)C(c3cccc(Cl)c3)=N2)c1` (stereo not shown) [Example 5, 3-(3-chlorophenyl)-4-(4-fluorophenyl)-1-[(1-methyl-1H-imidazol-4-yl)sulfonyl]-4,5-dihydro-1H-pyrazole] it is at most 1 µM; for `Cn1cc(S(=O)(=O)N2CC(c3ccc(F)cc3)C(c3cccc(Cl)c3)=N2)nn1` (stereo not shown) [Example 6, 4-{[3-(3-chlorophenyl)-4-(4-fluorophenyl)-4,5-dihydro-1H-pyrazol-1-yl]sulfonyl}-1-methyl-1H-1,2,3-triazole] it is at most 0.1 µM.
To `Cn1cc(S(=O)(=O)N2CC(c3ccc(F)cc3)C(c3cccc(Cl)c3)=N2)cn1` (stereo not shown) [Example 7, 4-{[3-(3-chlorophenyl)-4-(4-fluorophenyl)-4,5-dihydro-1H-pyrazol-1-yl]sulfonyl}-1-methyl-1H-pyrazole] belongs at most 0.01 µM; to `Cn1cnc(S(=O)(=O)N2CC(c3ccc(F)cc3)C(c3cccc(C(F)(F)F)c3)=N2)c1` (stereo not shown) [Example 8, 4-(4-fluorophenyl)-1-[(1-methyl-1H-imidazol-4-yl)sulfonyl]-3-[3-(trifluoromethyl)phenyl]-4,5-dihydro-1H-pyrazole], at most 0.1 µM.
The figure for `Cn1cc(S(=O)(=O)N2CC(c3ccc(F)cc3)C(c3ccccc3)=N2)cn1` (stereo not shown) [Example 9, 4-{[4-(4-fluorophenyl)-3-phenyl-4,5-dihydro-1H-pyrazol-1-yl]sulfonyl}-1-methyl-1H-pyrazole] is at least 10 µM; for `Cn1cc(S(=O)(=O)N2CC(c3ccc(F)cc3)C(c3cccc(C(F)(F)F)c3)=N2)cn1` (stereo not shown) [Example 10, 4-({4-(4-fluorophenyl)-3-[3-(trifluoromethyl)phenyl]-4,5-dihydro-1H-pyrazol-1-yl}sulfonyl)-1-methyl-1H-pyrazole] it is at most 10 µM.
As to `Cn1cc(S(=O)(=O)N2CC(c3ccccc3)C(c3ccc(Cl)cc3)=N2)cn1` (stereo not shown) [Example 11, 4-{[3-(4-chlorophenyl)-4-phenyl-4,5-dihydro-1H-pyrazol-1-yl]sulfonyl}-1-methyl-1H-pyrazole], the Ki is at most 10 µM.
`Cn1cc(S(=O)(=O)N2CC(c3ccccc3)C(c3ccc(Cl)cc3)=N2)nn1` (stereo not shown) [Example 12, 4-{[3-(4-chlorophenyl)-4-phenyl-4,5-dihydro-1H-pyrazol-1-yl]sulfonyl}-1-methyl-1H-1,2,3-triazole]: the Ki was at most 0.01 µM.
The figure for `Cn1cnc(S(=O)(=O)N2CC(c3ccccc3)C(c3cccc(OC(F)(F)F)c3)=N2)c1` (stereo not shown) [Example 13, 1-[(1-methyl-1H-imidazol-4-yl)sulfonyl]-4-phenyl-3-[3-(trifluoromethoxy)-phenyl]-4,5-dihydro-1H-pyrazole] is at most 0.1 µM; for `Cn1cc(S(=O)(=O)N2CC(c3ccccc3)C(c3cccc(OC(F)(F)F)c3)=N2)cn1` (stereo not shown) [Example 14, 1-methyl-4-({4-phenyl-3-[3-(trifluoromethoxy)phenyl]-4,5-dihydro-1H-pyrazol-1-yl}sulfonyl)-1H-pyrazole] it is at most 10 µM.
To `Cn1cc(S(=O)(=O)N2CC(c3ccccc3)C(c3cccc(OC(F)(F)F)c3)=N2)nn1` (stereo not shown) [Example 15, 1-methyl-4-({4-phenyl-3-[3-(trifluoromethoxy)phenyl]-4,5-dihydro-1H-pyrazol-1-yl}sulfonyl)-1H-1,2,3-triazole] belongs at most 0.1 µM; to `CC(C)CC1=NN(S(=O)(=O)c2cn(C)cn2)CC1c1ccccc1` (stereo not shown) [Example 17, 1-[(1-methyl-1H-imidazol-4-yl)sulfonyl]-3-(2-methylpropyl)-4-phenyl-4,5-dihydro-1H-pyrazole], at most 10 µM.
The figure for `Cn1cnc(S(=O)(=O)N2CC(c3ccccc3)C(c3ccccn3)=N2)c1` (stereo not shown) [Example 18, 2-{1-[(1-methyl-1H-imidazol-4-yl)sulfonyl]-4-phenyl-4,5-dihydro-1H-pyrazol-3-yl}pyridine] is at most 10 µM; for `Cn1cc(S(=O)(=O)N2CC(c3ccccc3)C(c3ccccn3)=N2)cn1` (stereo not shown) [Example 19, 2-{1-[(1-methyl-1H-pyrazol-4-yl)sulfonyl]-4-phenyl-4,5-dihydro-1H-pyrazol-3-yl}pyridine] it is at least 10 µM; for `Cn1cc(S(=O)(=O)N2CC(c3ccccc3)C(c3ccccn3)=N2)nn1` (stereo not shown) [Example 20, 2-{1-[(1-methyl-1H-1,2,3-triazol-4-yl)sulfonyl]-4-phenyl-4,5-dihydro-1H-pyrazol-3-yl}pyridine] it is at most 10 µM.
Take `Cn1cnc(S(=O)(=O)N2CC(c3ccccc3)C(c3cc(C(F)(F)F)ccn3)=N2)c1` (stereo not shown) [Example 21, 2-{1-[(1-methyl-1H-imidazol-4-yl)sulfonyl]-4-phenyl-4,5-dihydro-1H-pyrazol-3-yl}-4-(trifluoromethyl)pyridine]: the Ki is at most 10 µM.
To `Cn1cc(S(=O)(=O)N2CC(c3ccccc3)C(c3cc(C(F)(F)F)ccn3)=N2)cn1` (stereo not shown) [Example 22, 2-{1-[(1-methyl-1H-pyrazol-4-yl)sulfonyl]-4-phenyl-4,5-dihydro-1H-pyrazol-3-yl}-4-(trifluoromethyl)pyridine] belongs at most 10 µM.
In the case of `Cn1cc(S(=O)(=O)N2CC(c3ccccc3)C(c3cc(C(F)(F)F)ccn3)=N2)nn1` (stereo not shown) [Example 23, 2-{1-[(1-methyl-1H-1,2,3-triazol-4-yl)sulfonyl]-4-phenyl-4,5-dihydro-1H-pyrazol-3-yl}-4-(trifluoromethyl)pyridine], the Ki was at most 10 µM.
The figure for `Cn1cnc(S(=O)(=O)N2CC(c3ccc(Cl)cc3)C(c3ccccc3)=N2)c1` (stereo not shown) [Example 24, 4-(4-chlorophenyl)-1-[(1-methyl-1H-imidazol-4-yl)sulfonyl]-3-phenyl-4,5-dihydro-1H-pyrazole] is at most 1 µM.
The figure for `Cn1cnc(S(=O)(=O)N2CC(c3cccc(C#N)c3)C(c3ccccc3)=N2)c1` (stereo not shown) [Example 25, 3-{1-[(1-methyl-1H-imidazol-4-yl)sulfonyl]-3-phenyl-4,5-dihydro-1H-pyrazol-4-yl}benzonitrile] is at most 10 µM; for `Cn1cc(S(=O)(=O)N2CC(c3ccc(Cl)cc3)C(c3ccccc3)=N2)cn1` (stereo not shown) [Example 26, 4-{[4-(4-chlorophenyl)-3-phenyl-4,5-dihydro-1H-pyrazol-1-yl]sulfonyl}-1-methyl-1H-pyrazole] it is at most 10 µM.
The figure for `Cn1cc(S(=O)(=O)N2CC(c3ccc(Cl)cc3)C(c3ccccc3)=N2)nn1` (stereo not shown) [Example 27, 4-{[4-(4-chlorophenyl)-3-phenyl-4,5-dihydro-1H-pyrazol-1-yl]sulfonyl}-1-methyl-1H-1,2,3-triazole] is at most 1 µM; for `Cn1cc(S(=O)(=O)N2CC(c3cccc(C#N)c3)C(c3ccccc3)=N2)nn1` (stereo not shown) [Example 28, 3-{1-[(1-methyl-1H-1,2,3-triazol-4-yl)sulfonyl]-3-phenyl-4,5-dihydro-1H-pyrazol-4-yl}benzonitrile] it is at most 1 µM.
Take `Cn1cc(S(=O)(=O)N2CC(c3cccc(Cl)c3)C(c3ccccc3)=N2)cn1` (stereo not shown) [Example 29, 4-{[4-(3-chlorophenyl)-3-phenyl-4,5-dihydro-1H-pyrazol-1-yl]sulfonyl}-1-methyl-1H-pyrazole]: the Ki was at most 10 µM.
To `Cn1cnc(S(=O)(=O)N2CC(c3cccc(Cl)c3)C(c3ccccc3)=N2)c1` (stereo not shown) [Example 30, 4-(3-chlorophenyl)-1-[(1-methyl-1H-imidazol-4-yl)sulfonyl]-3-phenyl-4,5-dihydro-1H-pyrazole] belongs at most 0.1 µM.

Source of the values: patent publication US9550754B2, “4,5-dihydropyrazole derivatives, pharmaceutical compositions containing them, and their use in therapy” (ABBVIE DEUTSCHLAND GMBH & CO. KG, priority 2014, dated 2017).
